This is an account of results in US20240423246A1, “RAPAMYCIN FOR INCREASED MILK PRODUCTION” (THE STATE OF ISRAEL, MINISTRY OF AGRICULTURE & RURAL …, priority 2023, published 2024).

In data set [1] the target is T1, mammalian target of rapamycin (mTOR) (Bos taurus, UniProt E1BFB4). Nature of the data set: S6 phosphorylation in mammary parenchyma after single intramammary rapamycin administration (immunoblot, immunohistochemistry). It counts as in vivo, bovine (Holstein calves). The method, then: (§1) Three-month-old female Holstein calves (˜90 kg body weight [BW]) that were raised on the Volcani Center's experimental farm were used in these experiments. During the experimental periods, each mammary gland was administered via the teat canal with 2 mL of vehicle, composed of sterile PBS containing 10% polyethylene glycol (Sigma, St. Louis, MO) and 10% Tween 80 (Sigma). In individual experiments, the vehicle was supplemented with Evans blue to analyze the penetration of this solution into the mammary epithelium, or with rapamycin to analyze its effect on cellular activities. The vehicle was administered using a sterile 22G IV cannula (Deltaven, Viadana, (MN) Italy), cut to ˜1.5 cm and inserted (without the needle) into the teat canal. […] In the relevant experiments, estrogen (0.1 mg/kg per day, Sigma) and progesterone (0.25 mg/kg per day, Sigma) were administered following the rapamycin treatment by daily subcutaneous injections for 4 consecutive days. The design of the studies was based on the distinct morphology and activity of the individual “quarters” (i.e., glands) of the bovine udder which can be individually affected. Thus, in studies analyzing the rapamycin effects, front or rear glands of each side of the calf served as internal controls for the other two rapamycin-administered glands. The dye Evans blue was added to one of the vehicle-treated glands to follow its penetration into the epithelial morphology in close and far regions from the teat (FIG. 1).
Immunohistochemistry was performed on the 5-μm paraffin-embedded sections after antigen retrieval. The reaction with primary antibodies against β-casein (Barash lab), pS6 (Cell signaling Inc.), CK18 (GeneTex), and PCNA (BioLegend), was initiated by blocking the sections with 10% bovine serum albumen and 5% goat serum in 0.1% PBST for 1 h prior to overnight incubation with the first antibody at 4° C. Sections were washed and incubated with N-Histofine (Nichirei Biosciences, Tokyo, Japan) for 30 min at room temperature. Signals were generated with 3,3-diaminobenzidine (DAB) substrate (Vector Laboratories, Burlingame, CA).
(§2) Proteins from the parenchymal region of each mammary gland were extracted with RIPA buffer containing 10 mM Tris-HCl pH 7.5, 150 mM NaCl, 0.1% SDS, 1% sodium deoxycholate and 5 mM EDTA (Sigma), protease inhibitor cocktail and phosphatase inhibitor cocktail II (both from Sigma). Equal amounts of protein, determined by QPRO-BCA Kit Standard (Cyanagen, Bologna, Italy) according to the manufacturer's protocol, were subjected to SDS-PAGE. Fractionated proteins were transferred to nitrocellulose filters and the uploading of equal amounts of protein per sample was confirmed by staining the blot with Ponceau S (Sigma). The expression levels of phosphorylated S6 (pS6) and β-actin were determined according to the signals generated with their respective antibodies. Signals were generated with WESTAR Supernova (Cyanagen, Bologna, Italy) combined with Super Signal chemiluminescent substrate (Thermo Fisher Scientific), and detected in a Syngene analyzer (Cambridge, UK).
(§3) To determine an effective concentration and administration interval, mammalian target of rapamycin (mTOR) responsiveness to rapamycin administration was studied in parenchymal regions that were close to and far from the teat. Rapamycin was delivered to the parenchymatic region of two calves at two concentrations (4.16 or 8.32 mg/gland per day). The calves were sacrificed 24 h or 48 h later and the udders were removed. […] Note that complete repression of mTOR activity was avoided in these experiments to preserve the self-renewing capability of the epithelial stem cells.
For orientation: In western blotting, separated proteins are transferred to a membrane and probed.

Data set [2] is described as follows: Mammary tissue morphology and pathology after intramammary rapamycin (H&E). It counts as in vivo, bovine (Holstein calves). The procedure:
as §1
Bovine mammary samples were fixed in Bouin's solution, dehydrated in a graded ethanol series (50% to 100%), cleared in xylene and embedded in paraffin. Paraffin sections (5 μm) were stained with hematoxylin and eosin (H&E; Sigma) to visualize the morphology of the mammary layers.
as §3
The effect of 3 weeks of skip-a-day rapamycin administration (8.32 mg/gland per day) on stem cell self-renewal (FIGS. 3A-3F) was examined.
To study the effect of rapamycin administration and induced stem cell self-renewal on mammary cell proliferation and milk protein expression, front and rear mammary glands of three calves (six for each treatment) were infused with either vehicle or rapamycin for 3 weeks (8.3 mg/gland per day). […]

The target of data set [3] is T1, mammalian target of rapamycin (mTOR). Nature of the data set: S6 phosphorylation after 3 weeks of skip-a-day intramammary rapamycin administration (immunoblot). It counts as in vivo, bovine (Holstein calves). The procedure: (§4) Three-month-old female Holstein calves (˜90 kg body weight [BW]) that were raised on the Volcani Center's experimental farm were used in these experiments. During the experimental periods, each mammary gland was administered via the teat canal with 2 mL of vehicle, composed of sterile PBS containing 10% polyethylene glycol (Sigma, St. Louis, MO) and 10% Tween 80 (Sigma). In individual experiments, the vehicle was supplemented with Evans blue to analyze the penetration of this solution into the mammary epithelium, or with rapamycin to analyze its effect on cellular activities. […]
as §2, with “Fractionated proteins were transferred to nitrocellulose filters and the uploading of equal amounts of protein per sample was confirmed by staining the blot with Ponceau S (Sigma).” left out

Data set [4] relates to Notch1, Jagged1, Delta1, LGR4, LGR5. Nature of the data set: Relative gene expression of stem cell markers in treated glands (real-time PCR). It is filed as in vivo, bovine (Holstein calves). As to conditions: 3 weeks skip-a-day rapamycin; not significant at P<0.05. The procedure:
FIG. 4A-4B: (FIG. 4A) Dispersed cells isolated from individual vehicle- and rapamycin-treated mammary glands were seeded in 96-well plates and cultured in mammary medium. At the indicated time points (arrows), cells were trypsinized, counted and reseeded. Inset: cell number at the end of the culture period. Bars represent mean±SEM. (FIG. 4B) Relative gene expression analysis of luminal progenitor marker (Stat5) and stem cell markers (Notch1, Jagged1, Delta1, LGR4, LGR5). N=4 for vehicle-treated and 3 for rapamycin-treated glands. Six wells of cells from each gland were analyzed.
RNA was extracted from the parenchymal region of each mammary gland using TRIzol reagent and reverse-transcribed with the qScript Synthesis Kit (Quanta BioSciences, Beverly, MA). RNA quality and quantity were determined in a NanoDrop 1000 spectrophotometer (Thermo Fisher Scientific, Wilmington, DE). Quantitative real-time PCR analyses were performed in a StepOnePlus instrument (Applied Biosystems, Foster City, CA) in a […] reaction volume containing 1 μL cDNA, 5 μL PerfeCta SYBR Green FastMix, Rox (2X) (Quanta BioSciences) and 0.5 μL of the primers listed in Table 1. The thermal cycling conditions consisted of 20 s at 95° C. followed by 40 cycles of 3 s at 95° C. and 30 s at 60° C. […] Fold change (relative expression) was calculated using StepOne v2.1 and DataAssist v2.0 software (Applied Biosystems). […]

The subject of data set [5] is bovine mammary epithelial stem cell population. The experiment in a line: Propagation rate of cultured cells from vehicle- and rapamycin-treated glands. It is filed as cell-based. The method, then: For propagation rate, cells from each treatment were seeded in 96-well cell-culture plates (Corning, Corning, NY) at a density of 10,000 cells/well and cultured in mammary medium composed of DMEM-F12 medium containing 5% FBS, hydrocortisone ([…], Sigma), insulin ([…], Sigma), gentamicin ([…], Biological Industries), streptomycin and penicillin ([…] and 100 U/ml, respectively), hEGF (10 ng/ml, Merck, Darmstadt, Germany), hFGF2 (10 ng/ml, Merck), heparin (4 mg/ml, Merck), cholera toxin (10 ng/ml, Sigma) and B27 ([…], Invitrogen, Carlsbad, CA) (10) for the indicated period.
Rapamycin's effect on cell-propagation rate was analyzed in cultures from individual vehicle- and rapamycin-treated glands (FIG. 4A). This method produces a clear and significant distinction of the bovine mammary epithelial stem cell population from the more differentiated ones.

A further data set relates to mammary epithelial cells. The experiment in a line: Mammary cell proliferation by PCNA staining after rapamycin followed by estrogen and progesterone. It counts as in vivo, bovine (Holstein calves). As to conditions: 3 weeks 8.3 mg/gland per day, then estrogen and progesterone for 4 days. The method, then: FIGS. 6A-6C: (FIG. 6A) lower and (FIG. 6B) higher magnifications of PCNA-stained parenchymal cells and counterstained with hematoxylin. S, small ducts; L, large ducts. Bar=50 μm. (FIG. 6C) PCNA+ cells were analyzed in total (left plot), basal (middle plot) and luminal cell (right plot) populations of the small and large ducts. Six independent microscopic fields (X10 magnification) from each of the six glands treated with vehicle and six glands treated with rapamycin were analyzed. Overall, 127 ducts and 10,619 cells, and 122 ducts and 9999 cells were analyzed in the vehicle-treated and rapamycin-treated glands, respectively. ** P<0.01, *** P<0.001.
as §4, with “activities. The vehicle was administered using a sterile 22G IV cannula (Deltaven, Viadana, (MN) Italy), cut to ˜1.5 cm and inserted (without the needle) into the teat canal.” for “activities.”

A further data set has as its system bovine mammary cell. As to conditions: xanthosine administration; cited from earlier work.
[6] abbreviates: 24 h after infusion, close to nipple, rapamycin 4.16 mg.
[7] abbreviates: 24 h after infusion, close to nipple, rapamycin 8.32 mg.
Where [8] appears, read: 48 h after infusion, close to nipple, rapamycin 4.16 mg.
Setting [9] is: 48 h after infusion, close to nipple, rapamycin 8.32 mg.
Setting [10] is: 48 h after infusion, far from nipple, rapamycin 4.16 mg.
The mark [11] stands for this setting: 48 h after infusion, far from nipple, rapamycin 8.32 mg.

As for `CO[C@H]1C[C@@H]2CC[C@@H](C)[C@@](O)(O2)C(=O)C(=O)N2CCCC[C@H]2C(=O)O[C@H]([C@H](C)C[C@@H]2CC[C@@H](O)[C@H](OC)C2)CC(=O)[C@H](C)/C=C(\C)[C@@H](O)[C@@H](OC)C(=O)[C@H](C)C[C@H](C)/C=C/C=C/C=C/1C` [Rapamycin], the “pS6/S6 relative to vehicle (100%)” value is on record as “(66%)” in data set [1] (setting [6]); “(95%)” in data set [1] (setting [7]); “(71%)” in data set [1] (setting [8]); “(76%)” in data set [1] (setting [9]); “(93%)” in data set [1] (setting [10]); “(48%)” in data set [1] (setting [11]). Besides, the “pS6/β-actin relative to vehicle (100%)” value in data set [1] (setting [6]) is recorded as “(75%)”; in data set [1] (setting [7]), “(63%)”; in data set [1] (setting [8]) it was “(64%)”; in data set [1] (setting [9]), “(81%)”; in data set [1] (setting [10]) it was “(68%)”; in data set [1] (setting [11]), “(56%)”. For the same compound, in data set [2] (3 weeks 8.3 mg/gland per day, then estrogen and progesterone for 4 days), the “differences in morphology between vehicle- and rapamycin-treated glands” value was “no apparent differences”. For the same compound, the “effect on mammary gland morphology” value in data set [2] (3 weeks skip-a-day, 8.32 mg/gland per day) is recorded as “not associated with any detectable effect”. For the same compound, in data set [2] (4.16 or 8.32 mg/gland, 24 h or 48 h after administration), the “effect on tissue morphology in the parenchymatic regions” value is reported as “did not seem to have any effect”. Besides, the “pathological consequences of the amount and methodology chosen” value in data set [2] (intramammary administration) is listed as “did not have pathological consequences”. For the same compound, the “decrease in S6 phosphorylation” value in data set [3] (3 weeks skip-a-day, 8.32 mg/gland per day, immunoblot 48 h after termination) is 53%. Also, the “decrease in mTOR activity” value in data set [3] (skip-a-day, 3-week intramammary administration) is reported as approximately 50%. For the same compound, the “stem cell marker gene expression, more than in vehicle-treated counterparts” value in data set [4] is 8-20%. Also, the “propagation rate difference, cultures from rapamycin-treated vs vehicle-treated gland” value came out at 1.15 fold in data set [5] (day 37 of culture), 1.4 fold in data set [5] (day 52 of culture) and 2.6 fold in data set [5] (end of the culture period). Besides, in the data set with mammary epithelial cells, the “increase in total number of PCNA+ cells” value worked out at 20%.
With `O=c1[nH]c(=O)c2ncn([C@@H]3O[C@H](CO)[C@@H](O)[C@H]3O)c2[nH]1` [xanthosine], the “suppression of bovine mammary cell proliferation” value in the data set on bovine mammary cell is recorded as 50%.
